Measurements published in patent US20090176817A1, “Method of Treatment of Diarrhea-Predominant Irritable Bowel Syndrome in a Subject” (priority 2005, published 2009).
Marks after values point to notes of the source that are not given here.

Key:
[1] = tested on: patients with malignant tumors; test: Study K.241.5017: cisplatin-induced nausea and vomiting; format: in vivo, human; details: IV 8 mg TID
Protocol: The effect of cilansetron on nausea and vomiting has been studied in 2 clinical studies in cancer patients. Both studies were randomized, singleblind, positive-controlled, parallel-group, pilot studies in male and female patients with malignant tumors, to investigate the effect of cilansetron on cytostatic-induced nausea and vomiting. In both studies, patients were on their first cycle of chemotherapy and were being treated with cisplatin (275 mg/m2 as a single dose in Study S.24 1.2.10 1 and […] for 5 days in Study K.24 1 S O 17). Patients in Study S.24 1.2.10 1 were aged 40-74 years (ITT population=16) and patients in Study K.24 1 S O 17 were aged 39-74 years (ITT population=19). In both studies, patients were randomized to receive either […] or IV ondansetron 8 mg TID for 1 day (Study S.241.2.101) or 5 days (Study K.2415017), corresponding to the day(s) of their cisplatin administration. If nausea and vomiting were completely controlled on a treatment day, the second and/or third doses of cilansetron or ondansetron could be omitted on that day. The primary efficacy parameter in both studies was the combination of the occurrence of vomiting and the severity of nausea, with a responder being defined as a patient with no vomiting and not more than mild nausea during the treatment day(s). […]

[2] = tested on: healthy, elderly subjects; test: Study K.241.5014: colonic transit time, elderly, 8 mg TID; format: in vivo, human
Source text: The effect of cilansetron on gastric emptying time and colonic transit time has been studied in 1 clinical study in healthy young subjects and 2 studies in elderly subjects. For measurement of gastric emptying time, breath samples for the determination of the ^12C/^13C ratio were taken on the last day of each treatment period immediately after ingestion of a ^13C labeled meal. The patients' breath was collected in separate 15-minute intervals, for four hours in total. ^13CO2 measurements were performed with an isotope ratio mass spectrometer. The half-life (TK) and lag-time (Tlag), which describe the duration of gastric emptying, were used as the primary parameters to evaluate gastric emptying time. In all 3 studies, colonic transit time was measured by administration of radio-opaque markers for the last six days of each treatment period, followed by a single abdominal X-ray image at 24 hours after ingestion of the last set of markers. The numbers of markers within the colon were used to calculate segmental (right colon, left colon, and rectosigmoid) and total colonic transit time.
Studies K.241.5013 and K.241.5014 were randomized, double-blind, placebo-controlled, 2-way crossover studies in 8 healthy male and female elderly subjects, each (ITT population, aged 64-83 years in K.241.5013 and 66-84 years in K.241.5014). Elderly subjects were selected for these studies because they commonly suffer from constipation and it was of interest whether cilansetron would prolong gastrointestinal transit times in this population. Subjects received cilansetron 4 mg or placebo in Study K.241.5013 and cilansetron 8 mg or placebo in Study K.241.5014. Treatments were administered orally TID for 14 days during each period, with a 14-day washout between periods. The primary efficacy parameter was the total mean colonic transit time during each treatment and the secondary parameters were the segmental colonic transit times and the gastric emptying measurements. One-sided t-tests were used to compare efficacy parameters between the cilansetron and placebo treatments.

[3] = 8 mg TID oral 14 days, healthy elderly, Study K.241.5014, mean (SD)

Cc1nccn1C[C@H]1CCc2c(c3cccc4c3n2CCC4)C1=O [Cilansetron, (R)-(−)-4,5,6,8,9,10-hexahydro-10-[(2-methyl-1H-imidazol-1-yl)methyl]-11H-pyrido-[3,2,1-jk]-carbazol-11-one]
Response rate [1]: 21.4%
Total colonic transit time vs placebo ([2]; 8 mg TID): statistically significant increase
Transit Times, Colonic Segments Left [2, 3]: 31.5 (30.5) hours
Transit Times, Colonic Segments Rectosigmoid [2, 3]: 16.7 (25.2) hours
Transit Times, Colonic Segments Right [2, 3]: 31.4 (21.0) hours
Transit Times, Colon Total ([2]; 8 mg TID oral 14 days, healthy elderly, Study K.241.5014, mean (SD), significant vs placebo (p < 0.05)): 79.8 (49.8)* hours
In vivo chiral inversion to KC9945: no in vivo chiral inversion
